For one compound, Ki results are on record in BindingDB's records for doi:10.1074/jbc.M110.139634 (French Alternative Energies and Atomic Energy Commission, 2010).

What all share (assay): Enzyme Assay
What all share (settings): pH 6.8; 25 °C

Test [1] concerns the target 72 kDa type IV collagenase (Homo sapiens, UniProt P08253). The text has this:
(§1) Enzyme assay using matrix metalloproteinases.

Test [2] has as its target Angiotensin-converting enzyme (Homo sapiens, UniProt P12821).
Description: as §1

The target in the next test is Collagenase 3 (Homo sapiens, UniProt P45452).
Description: as §1

Test [3] has as its target T1, Disintegrin and metalloproteinase domain-containing protein 17 [215-477,S266A,N452Q] (Homo sapiens, UniProt P78536, N452Q/S266A).
T1 construct: 215-477
Description: as §1

The target in the next test is T2, Interstitial collagenase (Homo sapiens, UniProt P03956).
T2 sequence (P03956 whole entry): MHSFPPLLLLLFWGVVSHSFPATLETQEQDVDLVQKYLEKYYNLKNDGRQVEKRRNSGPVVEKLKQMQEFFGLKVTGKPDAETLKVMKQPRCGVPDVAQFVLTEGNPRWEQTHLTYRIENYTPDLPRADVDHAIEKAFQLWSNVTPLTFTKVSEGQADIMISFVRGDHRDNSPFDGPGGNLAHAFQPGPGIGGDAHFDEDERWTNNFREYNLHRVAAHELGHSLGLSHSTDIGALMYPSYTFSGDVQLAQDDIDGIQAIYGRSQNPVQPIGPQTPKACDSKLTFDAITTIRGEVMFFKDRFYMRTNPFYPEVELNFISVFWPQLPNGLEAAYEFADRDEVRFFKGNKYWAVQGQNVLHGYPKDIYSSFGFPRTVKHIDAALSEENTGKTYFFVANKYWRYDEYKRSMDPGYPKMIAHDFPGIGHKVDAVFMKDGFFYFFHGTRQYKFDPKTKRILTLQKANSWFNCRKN
Description: as §1

Test [4] deals with Macrophage metalloelastase (Homo sapiens, UniProt P39900).
Description: as §1

A further test has as its target T3, Matrilysin (Homo sapiens, UniProt P09237).
T3 sequence (P09237 whole entry): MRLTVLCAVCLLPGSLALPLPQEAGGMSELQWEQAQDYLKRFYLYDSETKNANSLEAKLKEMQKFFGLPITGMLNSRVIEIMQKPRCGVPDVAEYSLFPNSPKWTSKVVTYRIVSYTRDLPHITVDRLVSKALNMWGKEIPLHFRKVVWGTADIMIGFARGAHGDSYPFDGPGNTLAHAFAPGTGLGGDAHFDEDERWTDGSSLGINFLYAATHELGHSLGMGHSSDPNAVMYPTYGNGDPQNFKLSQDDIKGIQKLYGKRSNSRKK
Description: as §1

Test [5] deals with Matrix metalloproteinase-14 (Homo sapiens, UniProt P50281).
Description: as §1

Test [6] has as its target Matrix metalloproteinase-9 (Homo sapiens, UniProt P14780).
Description: as §1

The next test concerns the target Neutrophil collagenase (Homo sapiens, UniProt P22894).
Description: as §1

A further test addresses Stromelysin-1 (Homo sapiens, UniProt P08254).
Description: as §1

The next test deals with Stromelysin-2 (Homo sapiens, UniProt P09238).
Description: as §1

By Ki is commonly meant a dissociation constant, usually derived from enzyme kinetics or from competition with a known ligand.

Sequence of Stromelysin-2 (P09238 whole entry): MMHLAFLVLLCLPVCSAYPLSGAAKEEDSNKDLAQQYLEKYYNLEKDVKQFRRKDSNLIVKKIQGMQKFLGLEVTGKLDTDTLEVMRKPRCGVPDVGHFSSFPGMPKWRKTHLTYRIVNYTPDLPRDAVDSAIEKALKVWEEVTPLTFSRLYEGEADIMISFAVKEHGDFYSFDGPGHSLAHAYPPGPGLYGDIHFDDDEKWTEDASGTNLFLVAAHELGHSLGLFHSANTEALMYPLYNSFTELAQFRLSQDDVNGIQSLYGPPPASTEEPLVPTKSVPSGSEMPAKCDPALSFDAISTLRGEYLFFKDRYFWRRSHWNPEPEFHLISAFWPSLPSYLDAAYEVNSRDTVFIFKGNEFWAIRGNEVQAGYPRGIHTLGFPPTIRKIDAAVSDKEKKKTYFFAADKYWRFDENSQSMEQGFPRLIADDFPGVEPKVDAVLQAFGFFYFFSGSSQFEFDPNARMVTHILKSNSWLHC
Sequence of Angiotensin-converting enzyme (P12821 whole entry): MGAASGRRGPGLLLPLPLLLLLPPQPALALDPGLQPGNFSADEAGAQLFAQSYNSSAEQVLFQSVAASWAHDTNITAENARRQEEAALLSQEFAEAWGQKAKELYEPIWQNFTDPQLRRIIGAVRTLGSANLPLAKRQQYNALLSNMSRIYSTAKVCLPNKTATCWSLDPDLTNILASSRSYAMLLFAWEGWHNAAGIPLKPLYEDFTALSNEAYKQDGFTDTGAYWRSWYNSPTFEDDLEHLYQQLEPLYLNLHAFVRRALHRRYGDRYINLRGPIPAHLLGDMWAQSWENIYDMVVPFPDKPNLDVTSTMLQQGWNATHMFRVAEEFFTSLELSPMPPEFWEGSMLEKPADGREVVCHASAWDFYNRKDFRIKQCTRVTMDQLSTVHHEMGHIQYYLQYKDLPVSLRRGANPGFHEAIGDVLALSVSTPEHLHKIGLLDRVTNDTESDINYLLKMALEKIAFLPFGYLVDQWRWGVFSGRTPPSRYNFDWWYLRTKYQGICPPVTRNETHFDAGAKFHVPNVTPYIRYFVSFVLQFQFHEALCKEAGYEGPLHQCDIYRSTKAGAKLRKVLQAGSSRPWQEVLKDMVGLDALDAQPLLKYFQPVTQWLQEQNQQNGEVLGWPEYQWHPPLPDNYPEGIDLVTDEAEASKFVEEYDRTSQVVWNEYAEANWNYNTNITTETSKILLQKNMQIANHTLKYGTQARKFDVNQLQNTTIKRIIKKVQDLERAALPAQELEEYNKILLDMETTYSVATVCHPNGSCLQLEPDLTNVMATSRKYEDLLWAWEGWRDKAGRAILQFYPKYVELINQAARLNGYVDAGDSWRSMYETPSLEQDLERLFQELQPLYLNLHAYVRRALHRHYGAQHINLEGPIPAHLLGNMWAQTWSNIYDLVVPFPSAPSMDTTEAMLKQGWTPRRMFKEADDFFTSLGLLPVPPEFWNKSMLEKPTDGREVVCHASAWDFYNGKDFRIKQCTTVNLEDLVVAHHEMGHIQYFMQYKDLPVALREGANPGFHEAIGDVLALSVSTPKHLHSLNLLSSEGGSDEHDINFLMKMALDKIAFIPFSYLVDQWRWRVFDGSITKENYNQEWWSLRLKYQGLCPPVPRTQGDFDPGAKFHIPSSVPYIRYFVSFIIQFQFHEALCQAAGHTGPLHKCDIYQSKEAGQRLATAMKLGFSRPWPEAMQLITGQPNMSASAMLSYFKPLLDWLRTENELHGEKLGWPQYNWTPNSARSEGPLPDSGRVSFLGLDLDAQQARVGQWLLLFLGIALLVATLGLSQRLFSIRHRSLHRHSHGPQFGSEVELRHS
Sequence of 72 kDa type IV collagenase (P08253 whole entry): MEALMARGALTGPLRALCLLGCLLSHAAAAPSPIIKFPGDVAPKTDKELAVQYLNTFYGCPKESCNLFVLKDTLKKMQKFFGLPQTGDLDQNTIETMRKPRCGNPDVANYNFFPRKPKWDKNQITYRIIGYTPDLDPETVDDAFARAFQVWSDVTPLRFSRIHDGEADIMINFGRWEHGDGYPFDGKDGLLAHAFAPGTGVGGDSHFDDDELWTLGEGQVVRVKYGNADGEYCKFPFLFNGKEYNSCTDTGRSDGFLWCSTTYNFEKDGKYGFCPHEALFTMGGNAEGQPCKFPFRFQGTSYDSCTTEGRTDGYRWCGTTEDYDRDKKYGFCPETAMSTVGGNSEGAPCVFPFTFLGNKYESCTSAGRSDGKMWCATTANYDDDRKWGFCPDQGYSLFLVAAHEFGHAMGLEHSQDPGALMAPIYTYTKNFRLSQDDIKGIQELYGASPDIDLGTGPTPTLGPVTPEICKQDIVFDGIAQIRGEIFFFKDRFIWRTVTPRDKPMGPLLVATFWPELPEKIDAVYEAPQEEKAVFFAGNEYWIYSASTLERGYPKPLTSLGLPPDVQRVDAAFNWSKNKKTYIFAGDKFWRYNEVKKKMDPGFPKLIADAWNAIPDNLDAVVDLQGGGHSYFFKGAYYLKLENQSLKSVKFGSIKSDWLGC
Sequence of Stromelysin-1 (P08254 whole entry): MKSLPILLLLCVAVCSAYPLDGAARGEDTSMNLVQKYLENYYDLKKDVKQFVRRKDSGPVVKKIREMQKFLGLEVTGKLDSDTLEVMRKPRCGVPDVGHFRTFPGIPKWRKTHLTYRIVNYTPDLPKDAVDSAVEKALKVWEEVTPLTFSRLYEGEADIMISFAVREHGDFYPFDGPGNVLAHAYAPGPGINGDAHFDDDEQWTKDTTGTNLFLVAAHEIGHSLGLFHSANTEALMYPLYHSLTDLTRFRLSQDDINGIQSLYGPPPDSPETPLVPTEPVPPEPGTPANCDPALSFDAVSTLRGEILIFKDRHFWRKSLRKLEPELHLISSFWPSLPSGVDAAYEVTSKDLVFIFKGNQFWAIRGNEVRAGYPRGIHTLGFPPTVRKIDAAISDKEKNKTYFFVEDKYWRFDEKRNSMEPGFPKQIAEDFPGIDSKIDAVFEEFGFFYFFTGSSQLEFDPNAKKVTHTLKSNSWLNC
Sequence of Neutrophil collagenase (P22894 whole entry): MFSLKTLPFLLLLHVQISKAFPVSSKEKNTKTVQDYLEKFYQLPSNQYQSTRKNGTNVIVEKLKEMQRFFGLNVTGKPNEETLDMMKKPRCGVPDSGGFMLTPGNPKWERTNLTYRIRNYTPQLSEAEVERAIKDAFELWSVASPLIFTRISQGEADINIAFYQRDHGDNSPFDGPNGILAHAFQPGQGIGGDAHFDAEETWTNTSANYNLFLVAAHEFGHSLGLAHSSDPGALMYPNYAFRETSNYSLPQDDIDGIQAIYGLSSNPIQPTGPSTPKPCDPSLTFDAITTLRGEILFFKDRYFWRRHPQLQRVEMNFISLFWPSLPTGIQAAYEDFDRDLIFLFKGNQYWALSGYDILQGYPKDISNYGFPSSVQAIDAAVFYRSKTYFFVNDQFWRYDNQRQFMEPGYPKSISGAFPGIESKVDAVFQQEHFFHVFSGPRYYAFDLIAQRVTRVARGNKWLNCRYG
Sequence of Matrix metalloproteinase-9 (P14780 whole entry): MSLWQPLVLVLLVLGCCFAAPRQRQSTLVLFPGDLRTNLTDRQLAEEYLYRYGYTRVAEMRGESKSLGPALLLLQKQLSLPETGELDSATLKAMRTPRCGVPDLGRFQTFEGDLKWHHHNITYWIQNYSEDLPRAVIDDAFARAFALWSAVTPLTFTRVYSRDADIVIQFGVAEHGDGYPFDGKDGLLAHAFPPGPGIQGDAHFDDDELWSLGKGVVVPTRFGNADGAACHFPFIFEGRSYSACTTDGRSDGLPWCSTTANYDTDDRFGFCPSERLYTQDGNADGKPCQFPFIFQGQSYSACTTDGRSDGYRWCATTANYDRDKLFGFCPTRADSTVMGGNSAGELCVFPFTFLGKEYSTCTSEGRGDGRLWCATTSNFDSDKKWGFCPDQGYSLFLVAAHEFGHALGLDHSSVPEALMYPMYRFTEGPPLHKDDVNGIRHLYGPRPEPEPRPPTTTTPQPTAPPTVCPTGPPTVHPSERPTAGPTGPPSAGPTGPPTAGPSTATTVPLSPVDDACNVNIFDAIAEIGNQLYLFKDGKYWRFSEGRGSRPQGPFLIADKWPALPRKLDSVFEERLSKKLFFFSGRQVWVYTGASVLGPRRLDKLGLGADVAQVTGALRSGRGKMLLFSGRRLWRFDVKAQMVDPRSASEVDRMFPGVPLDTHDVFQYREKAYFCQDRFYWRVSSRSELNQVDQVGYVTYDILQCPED
T1 sequence (P78536 215-477 S266A/N452Q): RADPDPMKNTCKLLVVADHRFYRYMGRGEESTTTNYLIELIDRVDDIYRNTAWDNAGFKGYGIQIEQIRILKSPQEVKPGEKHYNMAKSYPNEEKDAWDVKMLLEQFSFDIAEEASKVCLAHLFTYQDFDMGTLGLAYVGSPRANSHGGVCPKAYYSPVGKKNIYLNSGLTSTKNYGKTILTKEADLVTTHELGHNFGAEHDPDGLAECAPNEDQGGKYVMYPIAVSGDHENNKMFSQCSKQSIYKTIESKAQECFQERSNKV
Sequence of Macrophage metalloelastase (P39900 whole entry): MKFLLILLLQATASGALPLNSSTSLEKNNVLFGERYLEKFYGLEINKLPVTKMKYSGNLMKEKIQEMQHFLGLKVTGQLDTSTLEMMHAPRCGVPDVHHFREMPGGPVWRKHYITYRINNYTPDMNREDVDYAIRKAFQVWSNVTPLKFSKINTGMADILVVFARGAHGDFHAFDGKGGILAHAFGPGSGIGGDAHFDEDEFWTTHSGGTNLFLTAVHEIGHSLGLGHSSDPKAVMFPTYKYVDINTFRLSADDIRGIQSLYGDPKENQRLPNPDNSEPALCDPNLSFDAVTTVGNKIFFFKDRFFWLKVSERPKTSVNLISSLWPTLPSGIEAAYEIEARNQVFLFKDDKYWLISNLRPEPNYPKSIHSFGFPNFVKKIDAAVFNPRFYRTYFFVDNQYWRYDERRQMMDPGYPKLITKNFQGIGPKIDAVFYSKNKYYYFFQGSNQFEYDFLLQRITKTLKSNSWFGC

`NC(=O)[C@@H](CCC(=O)O)NC(=O)[C@H](CCC(=O)O)NC(=O)C(Cc1cc(-c2ccc(-c3cccc(Cl)c3)cc2)no1)CP(=O)(O)c1ccc(Br)cc1` (some centres not stated) [RXP470, Compound 4]: the Ki in test [1] was 192 nM; in test [2] it was above 10000 nM; on Collagenase 3, 49 nM; in test [3], above 10000 nM; at Interstitial collagenase, above 10000 nM; in test [4] it was 0.19 nM. The inhibitory constant (Ki) on Matrilysin turned out to be 626 nM; in test [5], 140 nM; in [6], 850 nM; at Neutrophil collagenase it was 271 nM; on Stromelysin-1, 40 nM; at Stromelysin-2, 8.3 nM.
